Patent US20150252047A1, “SUBSTITUTED INDAZOL-PYRROLOPYRIMIDINES USEFUL IN THE TREATMENT OF HYPERPROLIFERATIVE DISEASES” (BAYER PHARMA AKTIENGESELLSCHAFT, priority 2012, published 2015)

Molecular target: T1, human full-length MKNK1 (Homo sapiens, UniProt Q9BUB5, T385D)
T1 construct: GST (N); purchased Carna Biosciences 02-145; host or cells: insect cells (baculovirus expression system)
Assay: MKNK1 kinase high ATP assay (TR-FRET)
Format: biochemical
Conditions: high ATP (2 mM final), 15 min preincubation with enzyme, 30 min reaction at 22° C.
Procedure: MKNK1-inhibitory activity at high ATP of compounds of the present invention after their preincubation with MKNK1 was quantified employing the TR-FRET-based MKNK1 high ATP assay as described in the following paragraphs.
A recombinant fusion protein of Glutathione-S-Transferase (GST, N-terminally) and human full-length MKNK1 (amino acids 1-424 and T344D of accession number BAA 19885.1), expressed in insect cells using baculovirus expression system and purified via glutathione sepharose affinity chromatography, was purchased from Carna Biosciences (product no 02-145) and used as enzyme. As substrate for the kinase reaction the biotinylated peptide biotin-Ahx-IKKRKLTRRKSLKG (C-terminus in amide form) was used, which can be purchased e.g. from the company Biosyntan (Berlin-Buch, Germany).
For the assay 50 nL of a 100 fold concentrated solution of the test compound in DMSO was pipetted into a black low volume 384 well microtiter plate (Greiner Bio-One, Frickenhausen, Germany), 2 μL of a solution of MKNK1 in aqueous assay buffer [50 mM HEPES pH 7.5, 5 mM MgCl2, 1.0 mM dithiothreitol, 0.005% (v/v) Nonidet-P40 (Sigma)] was added and the mixture was incubated for 15 min at 22° C. to allow pre-binding of the test compounds to the enzyme before the start of the kinase reaction. Then the kinase reaction was started by the addition of 3 μL of a solution of adenosine-tri-phosphate (ATP, 3.3 mM=>final conc. in the 5 μL assay volume is 2 mM) and substrate (0.1 μM=>final conc. in the 5 μL assay volume is 0.06 μM) in assay buffer and the resulting mixture was incubated for a reaction time of 30 min at 22° C. The concentration of MKNK1 was adjusted depending of the activity of the enzyme lot and was chosen appropriate to have the assay in the linear range, typical concentrations were in the range of 0.003 μg/mL. The reaction was stopped by the addition of 5 μL of a solution of TR-FRET detection reagents (5 nM streptavidine-XL665 [Cisbio Bioassays, Codolet, France] and 1 nM anti-ribosomal protein S6 (pSer236)-antibody from Invitrogen [#44921G] and 1 nM LANCE EU-W1024 Labeled ProteinG [Perkin-Elmer, product no. AD0071]) in an aqueous EDTA-solution (100 mM EDTA, 0.1% (w/v) bovine serum albumin in 50 mM HEPES pH 7.5).
The resulting mixture was incubated for 1 h at 22° C. to allow the formation of complex between the phosphorylated biotinylated peptide and the detection reagents. Subsequently the amount of phosphorylated substrate was evaluated by measurement of the resonance energy transfer from the Eu-chelate to the streptavidine-XL. Therefore, the fluorescence emissions at 620 nm and 665 nm after excitation at 350 nm were measured in a TR-FRET reader, e.g. a Rubystar (BMG Labtechnologies, Offenburg, Germany) or a Viewlux (Perkin-Elmer). The ratio of the emissions at 665 nm and at […] was taken as the measure for the amount of phosphorylated substrate. The data were normalised (enzyme reaction without inhibitor=0% inhibition, all other assay components but no enzyme=100% inhibition).

T1 sequence (Q9BUB5 1-424 isoform Q9BUB5-2 T344D): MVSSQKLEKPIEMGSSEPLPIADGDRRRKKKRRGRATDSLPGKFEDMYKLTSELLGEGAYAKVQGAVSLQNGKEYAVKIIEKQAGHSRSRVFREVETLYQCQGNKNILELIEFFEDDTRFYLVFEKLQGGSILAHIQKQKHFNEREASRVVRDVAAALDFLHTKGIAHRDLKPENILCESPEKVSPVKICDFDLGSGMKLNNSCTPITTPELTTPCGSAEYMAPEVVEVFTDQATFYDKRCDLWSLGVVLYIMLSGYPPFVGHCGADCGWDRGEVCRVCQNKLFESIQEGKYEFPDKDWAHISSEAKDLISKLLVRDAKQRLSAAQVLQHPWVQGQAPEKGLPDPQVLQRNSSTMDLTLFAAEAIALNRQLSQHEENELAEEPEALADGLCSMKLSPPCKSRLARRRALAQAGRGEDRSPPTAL

IC50 [nM] | Compound
1 | COc1cc2[nH]ncc2cc1Nc1ncnc2[nH]c(S(=O)(=O)c3ccc(C)cc3)cc12 [Example 51, N-(6-Methoxy-1H-indazol-5-yl)-6-[(4-methylphenyl)sulfonyl]-7H-pyrrolo[2,3-d]pyrimidin-4-amine]
2 | CC(C)Oc1cc2[nH]ncc2cc1Nc1ncnc2[nH]c(S(=O)(=O)c3ccccc3)cc12 [Example 52, 6-(Phenylsulfonyl)-N-[6-(propan-2-yloxy)-1H-indazol-5-yl]-7H-pyrrolo[2,3-d]pyrimidin-4-amine]
2 | Cc1ccc(S(=O)(=O)c2cc3c(Nc4cc5cn[nH]c5cc4OC(C)C)ncnc3[nH]2)cc1 [Example 53, 6-[(4-Methylphenyl)sulfonyl]-N-[6-(propan-2-yloxy)-1H-indazol-5-yl]-7H-pyrrolo[2,3-d]pyrimidin-4-amine]
37 | CC(C)Oc1cc2[nH]ncc2cc1Nc1ncnc2[nH]c(S(C)(=O)=O)cc12 [Example 54, 6-(Methylsulfonyl)-N-[6-(propan-2-yloxy)-1H-indazol-5-yl]-7H-pyrrolo[2,3-d]pyrimidin-4-amine]
98 | Fc1cc2[nH]ncc2cc1Nc1ncnc2[nH]c(Br)cc12 [Example 55, 6-Bromo-N-(6-fluoro-1H-indazol-5-yl)-7H-pyrrolo[2,3-d]pyrimidin-4-amine]
1 | COc1cc2[nH]ncc2cc1Nc1ncnc2[nH]c(CC(C)C)c(C(C)C)c12 [Example 56, N-(6-Methoxy-1H-indazol-5-yl)-6-(2-methylpropyl)-5-(propan-2-yl)-7H-pyrrolo[2,3-d]pyrimidin-4-amine]
1 | CCc1c[nH]c2ncnc(Nc3cc4cn[nH]c4cc3OC)c12 [Example 57, 5-Ethyl-N-(6-methoxy-1H-indazol-5-yl)-7H-pyrrolo[2,3-d]pyrimidin-4-amine]
2 | COc1cc2[nH]ncc2cc1Nc1ncnc2[nH]c(C(=O)N3CCOCC3)c(Br)c12 [Example 58, {5-Bromo-4-[(6-methoxy-1H-indazol-5-yl)amino]-7H-pyrrolo[2,3-d]pyrimidin-6-yl}(morpholin-4-yl)methanone]
1 | COc1cc2[nH]ncc2cc1Nc1ncnc2[nH]c(C(=O)N(C)C)c(Br)c12 [Example 59, 5-Bromo-4-[(6-methoxy-1H-indazol-5-yl)amino]-N,N-dimethyl-7H-pyrrolo[2,3-d]pyrimidine-6-carboxamide]
2 | COc1cc2[nH]ncc2cc1Nc1ncnc2[nH]c(C(=O)N3CCCCC3)c(Br)c12 [Example 60, {5-Bromo-4-[(6-methoxy-1H-indazol-5-yl)amino]-7H-pyrrolo[2,3-d]pyrimidin-6-yl}(piperidin-1-yl)methanone]
1 | COc1cc2[nH]ncc2cc1Nc1ncnc2[nH]c(C(=O)N3CCCC3)c(Br)c12 [Example 61, {5-Bromo-4-[(6-methoxy-1H-indazol-5-yl)amino]-7H-pyrrolo[2,3-d]pyrimidin-6-yl}(pyrrolidin-1-yl)methanone]
4 | COc1cc2[nH]ncc2cc1Nc1ncnc2[nH]c(C(=O)N(C)CCN(C)Cc3ccccc3)c(Br)c12 [Example 62, N-{2-[Benzyl(methyl)amino]ethyl}-5-bromo-4-[(6-methoxy-1H-indazol-5-yl)amino]-N-methyl-7H-pyrrolo[2,3-d]pyrimidine-6-carboxamide]
1 | CCOC(=O)c1[nH]c2ncnc(Nc3cc4cn[nH]c4cc3OC(C)C)c2c1Br [Example 63, Ethyl 5-bromo-4-{[6-(propan-2-yloxy)-1H-indazol-5-yl]amino}-7H-pyrrolo[2,3-d]pyrimidine-6-carboxylate]
1 | COc1cc2[nH]ncc2cc1Nc1ncnc2[nH]c(C(=O)N3C[C@@H]4C[C@H]3CO4)c(Br)c12 [Example 64, {5-Bromo-4-[(6-methoxy-1H-indazol-5-yl)amino]-7H-pyrrolo[2,3-d]pyrimidin-6-yl}[(1S,4S)-2-oxa-5-azabicyclo[2.2.1]hept-5-yl]methanone]
4 | COc1cc2[nH]ncc2cc1Nc1ncnc2[nH]c(C(=O)N3C[C@H]4C[C@@H]3CO4)c(Br)c12 [Example 65, {5-Bromo-4-[(6-methoxy-1H-indazol-5-yl)amino]-7H-pyrrolo[2,3-d]pyrimidin-6-yl}[(1R,4R)-2-oxa-5-azabicyclo[2.2.1]hept-5-yl]methanone]
2 | COc1cc2[nH]ncc2cc1Nc1ncnc2[nH]c(C(=O)N3CCC3)c(Br)c12 [Example 66, Azetidin-1-yl{5-bromo-4-[(6-methoxy-1H-indazol-5-yl)amino]-7H-pyrrolo[2,3-d]pyrimidin-6-yl}methanone]
3 | COc1cc2[nH]ncc2cc1Nc1ncnc2[nH]c(C(=O)N3CCOC[C@H]3C)c(Br)c12 [Example 67, {5-Bromo-4-[(6-methoxy-1H-indazol-5-yl)amino]-7H-pyrrolo[2,3-d]pyrimidin-6-yl}[(3R)-3-methylmorpholin-4-yl]methanone]
14 | COc1cc2[nH]ncc2cc1Nc1ncnc2[nH]c(C(=O)NCC(=O)N(C)C)c(Br)c12 [Example 68, 5-Bromo-N-[2-(dimethylamino)-2-oxoethyl]-4-[(6-methoxy-1H-indazol-5-yl)amino]-7H-pyrrolo[2,3-d]pyrimidine-6-carboxamide]
